Source: patent US7691966B2, “Method for quantitative analysis for prolyl hydroxylase activity using fluorescence polarization” (Korea Institute of Science and Technology, priority 2005, dated 2010)

Experiments:
VBC protein [1] = target: T1, VBC protein (Homo sapiens, UniProt P40337); test: Fluorescence polarization binding of fluorescent labeled HIF-1 peptide to VBC protein
T1 construct: made in house; host or cells: E. coli BL21 (DE3)
Description: Human von Hippel-Lindau gene fragment (corresponding to 54˜213 a.a. region of the amino acid sequence represented by GenBank Accession No: NM000551) and human Elongin B fragment (corresponding to 1˜118 a.a. region of the amino acid sequence represented by GenBank Accession No: NM007108) were inserted into a modified pGEX-4T-1, resulting in plasmid pGEX4T-VHL-EB. Likewise, human Elongin C fragment (corresponding to 17˜112 a.a. region of the amino acid sequence represented by GenBank Accession No: NM005648) was inserted into pET29b vector, resulting in plasmid PDEV-EC (Novagen). The plasmids were co-expressed massively in E. coli BL21 (DE3) (Novagen).
(§1) Fluorescence polarization changes were measured during the formation of protein-ligand complex of VBC protein and the above peptides prepared in Example 1, to investigate binding capacity and characteristics thereof. Fluorescence polarization was measured by using fluorometer (Perkin-Elmer), and the size of slit was 5 nm and integration time was 5 seconds. A buffer solution containing 50 mM Tris and 120 mM NaCl, pH 8.0, was supplemented with NP-40 (nonidet P40) by 0.5%, for being utilized for the experiments of binding and interaction.
After mixing, fluorescence polarization was measured.

VBC protein [2] = target: T1, VBC protein; test: Fluorescence polarization competition assay for inhibitors of F-HyP564 peptide-VBC protein binding; conditions: 100 nM F-HyP564, 500 nM VBC, competitor 0 to 500 μM
Protocol: as §1
Fluorescence polarization of the reaction solution was measured.
After mixing, fluorescence polarization changes were measured.

fluorescence polarization change on addition of competitor peptide (VBC protein [2]) | Compound | further results
 | CC[C@H](C)[C@H](NC(=O)[C@H](Cc1ccc(O)cc1)NC(=O)[C@@H]1C[C@@H](O)CN1C(=O)[C@H](C)NC(=O)[C@H](CC(C)C)NC(=O)[C@H](C)NC(=O)[C@H](CCC(=O)O)NC(=O)[C@H](CC(C)C)NC(=O)[C@H](CC(=O)O)NC(=O)[C@H](CC(C)C)NC(=O)[C@H](CC(=O)O)NC(=O)CCCCCNC(=S)Nc1ccc2c(c1)C(=O)OC21c2ccc(O)cc2Oc2cc(O)ccc21)C(=O)N1CCC[C@H]1C(=O)N[C@@H](C)C(=O)N[C@@H](CC(=O)O)C(=O)N[C@@H](CC(=O)O)C(=O)N[C@@H](CC(=O)O)C(=O)N[C@@H](Cc1ccccc1)C(=O)N[C@@H](CCC(N)=O)C(=O)N[C@@H](CC(C)C)C(=O)N[C@@H](CCCNC(=N)N)C(=O)O [F-HyP564] | fluorescence polarization of reactant with VBC protein compared with probe itself (VBC protein [1]; reacted with VBC protein at 25° C.): remarkably increased
remarkably decreased | CC[C@H](C)[C@H](NC(=O)[C@H](Cc1ccc(O)cc1)NC(=O)[C@@H]1C[C@@H](O)CN1C(=O)[C@H](C)NC(=O)[C@H](CC(C)C)NC(=O)[C@H](C)N)C(=O)N1CCC[C@H]1C(=O)N[C@@H](C)C(=O)O [Hy-N fragment, ALAHyPYIPA] | 
only a slight decrease | ALAPYIPA [N] | 
 | F-P564: FITC-aminocaproic acid-labeled HIF-1α 556-575 peptide without hydroxyproline, SEQ ID NO:1 | fluorescence polarization value (VBC protein [1]; 100 nM peptide, 800 nM VBC protein, 25° C.): 0.066

Compound | fluorescence polarization change on addition of competitor peptide (VBC protein [2]) | further results
DDDFQLR [C] | only a slight decrease | 
